# Experimental data reported in US20140163075A1, “MODULATION OF THE UBIQUITIN-PROTEASOME SYSTEM (UPS)” (NETHERLAND CANCER INSTITUTE, priority 2011, published 2014).
# Entries after “also recorded” stand apart in the source; their conditions may differ. Where two headings read alike, the source gives them in different places. Residues, ends and D or L forms follow the SMILES beside them. *: point of attachment. Cbz = O=C(OCc1ccccc1)*
# Columns and labels:
# [1] = tested on: 20S and/or 26S proteasome; assay: FACS-based proteasome activity assay with Me4BodipyFL-Ahx3Leu3VS activity probe in MelJuSo wild type cells; assay type: cell-based, human
# Experimental: MelJuSo cells are washed, trypsinized and resuspended in medium containing FBS and antibiotics. After counting the concentration is adjusted to 200,000 cells per mL. Using the Wellmate microplate dispenser fitted with small bore nozzle tubing, 50 μL of cell suspension is transferred to each well of a black 384 wells plate (10,000 cells/well).
# A brief spin down will prevent any liquid from being lost when the plate cover is removed. Using a Hamilton liquid handling workstation the compounds are diluted to appropriate concentrations. To “wash” the cells prior to exposure 30 μL of medium is removed from each well and is replaced with fresh medium. Then the compounds are added to the medium of the cells (final concentration 5 μM).
# Using the Wellmate microplate dispenser fitted with small bore nozzle tubing, […] of probe suspension is transferred to each well resulting in a final probe concentration of 200 nM. Plates are left to incubate for two hours. Then the medium is removed and the cells are washed one time with PBS. The PBS is removed and 10 μL of trypsin is added to each well. The plates are left on a shaker for 2 minutes, placed in an incubator for 5 minutes and put on a shaker again for 2 minutes. 40 μL of PBS containing 2% FBS is added per well and the plates are put on the shaker for 2 minutes. Finally, 20 μL of PBS containing 4% formaldehyde is added and the plates are left to shake for at least 15 minutes. Plates are left on a shaker at 4° C. until they can be measured.
# The FITS unit is installed on the FACS and everything is turned on. To remove air from the system and ascertain that everything works fine the system is primed twice. One by one the plates are brought down and measured. In between plates a “daily clean” cycle is performed to prevent the system from becoming clogged. After the last plate the system should be cleaned again.
# Analysis is always performed per plate. Throughout the analysis the following parameters are considered: • Forward Scatter (FSC): size of the cell • Side Scatter (SSC): granularity of the cell • Number of events (#) • Probe signal (FL-1): proteasome activity • FL-2 and FL-3: signal in other channels
# All DMSO samples are checked and aberrant wells (low # events, high SSC, no signal) are excluded. The average of the FL-1 from all remaining DMSO samples is used to calculate the “ratio vs. DMSO” and the FL-1 log 2 ratio of the experimental samples. This will result in DMSO samples having a FL-1 log 2 value around zero. Compounds are considered “activators” or “hits” if the FL-1 log 2 ratio is >1, and inhibitors if the FL-1 log 2 ratio is […].
# (§1) Cells were washed once with phosphate buffered saline (PBS, 1 GIBCO tablet in 500 mL MilliQ). Fresh medium containing the compound at the indicated concentration was added. After the incubation time 200 nM of Me4BodipyFL-Ahx3Leu3VS activity probe was added to the cells and after two hours of incubation cells were harvested for subsequent analysis by FACS or post-lysis fluorescence detection.
# Celts were washed once with PBS, trypsin was added and the plate was placed at 37° C. for 5 minutes to allow the cells to detach. When detached the cells were resuspended in PBS supplemented with 2% FBS. Cells were fixed with formaldehyde (final concentration 1% in PBS). All samples were measured using a FACSCalibur flow cytometer (BD Biosciences). […] The complete workflow used for the compound screens is described above in more detail.
# The compound libraries mentioned above are screened using a FACS-based activity assay. The proteasome activity probe Me4BodipyFL-Ahx3Leu3VS activity probe is used to fluorescently label the proteasome. This probe binds irreversibly to the catalytic domains of the 20S CP. When proteasome activity is increased, increased probe binding results in an increase in fluorescent signal compared to untreated cells.
# MelJuSo wild type cells = assay: Cell viability (resazurin) assay, MG132 induced cell death; conditions: 1 μM, 24 hours
# proteasome = conditions: literature overview; cited from earlier work
# [2] = tested on: proteasome subunits (β2- and β5-subunits); assay: SDS-PAGE in-gel fluorescence of probe-labelled proteasome subunits in MelJuSo (MEL-JUSO) cells; assay type: cell-based, human; conditions: for activation effect on the β2- and β5-subunits: MEL-JUSO cells, p38 inhibitor panel tested at 1 and 5 μM, effect at 5 μM, FIG. 14B
# Experimental: as §1
# Cells were washed once with PBS, trypsin (6 well plate: 500 μL, 12 well plate: 200 μL, 24 well plate: 100 μL) was added and the plate was placed at 37° C. for 5 minutes to allow the cells to detach. When fully detached the cells were resuspended in fresh culture medium. Medium with cells was collected and after a centrifugation step (1100 ref for 2 minutes) the cells (pellet) were resuspended in cold HR buffer (50 mM Tris pH=7.4, 5 mM MgCl2, 250 mM sucrose, 1 mM DTT and 2 mM ATP). Lysis of the cells is achieved by sonification (Bioruptor, high intensity for 5 minutes with an ON/OFF cycle of 30 seconds) at 4° C. After a centrifugation step (13.600 rpm for 10 minutes) to remove cell debris the protein concentration (absorbance at 280 nm) of the supernatant is measured with a NanoDrop spectrophotometer. Fresh HR buffer without any cells was used as a blank,
# Equal amounts of protein (15-20 μg) were denatured by heating the samples for 10 minutes at 71° C. in loading buffer (450 μL 4× loading buffer (Invitrogen), 45 μL β-Mercaptoethanol and 105 μl, MilliQ, 2 parts sample to 1 part loading buffer). The samples were loaded onto a 12% SDS-PAGE gel using the NuPAGE system from Invitrogen. MOPS (3-(N-morpholino)propanesulfonic acid) was used as a running buffer. Gels run at 180 V for approximately 1.5-2.0 hours and were directly imaged using the ProXPRESS 2D Proteomic imaging system (Perkin Elmer). Resolution was set at 100 μm, excitation at 480/30 and emission at 530/30. To verify protein loading, gels were stained with Coomassie Brilliant Blue. Images were analyzed using Totallab analysis software (Nonlinear Dynamics, Newcastle upon Tyne, UK) to quantify the intensity of the bands detected.
# Additionally, FACS and SDS-PAGE validation experiments were done in which cells were incubated for 16 hours with 0.1, 0.5, 1.0 or 5.0 μM compound.
# The proteasomal subunits are then labeled using the fluorescent […] probe, which selectively binds only to active β-subunits of the proteasome. The fluorogenic-labeled proteasome subunits were visualized directly in-gel by fluorescence scanning.
# To further investigate this, MelJuSo wild type cells were incubated with 5 μM Win 62,577 for one hour. Then the medium was changed for regular medium without the compound present. After one or two hours of “washout” cells were stained with the proteasome activity probe and analyzed with SDS-PAGE followed by fluorescent scanning of the gel. The results of this experiment are depicted in FIG. 17.
# p38α = p38α (Homo sapiens, UniProt Q16539); conditions: literature [80, 83]; cited from earlier work
# p38α, sequence (Q16539 whole entry): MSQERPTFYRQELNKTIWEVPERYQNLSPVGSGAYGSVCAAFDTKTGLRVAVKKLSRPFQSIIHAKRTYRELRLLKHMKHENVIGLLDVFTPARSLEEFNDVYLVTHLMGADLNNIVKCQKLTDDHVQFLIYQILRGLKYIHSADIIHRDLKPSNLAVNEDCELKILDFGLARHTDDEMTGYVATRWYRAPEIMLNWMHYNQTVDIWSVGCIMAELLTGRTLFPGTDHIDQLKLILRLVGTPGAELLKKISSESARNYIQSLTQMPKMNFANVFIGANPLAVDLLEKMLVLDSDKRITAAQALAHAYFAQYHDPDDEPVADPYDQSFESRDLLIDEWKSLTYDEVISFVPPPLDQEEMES
# [3] = LOPAC and JHCCL library screen, 5 μM compound, 16 hours, 200 nM probe two hours
Compound,"screening hit (FL-1 log 2 ratio >1.00 and no exclusion criterion met) [1, 3]",Results: purified proteasome/lysate (proteasome),other results
Medroxyprogesterone,–,–,screening hit (FL-1 log 2 ratio >1.00 and no exclusion criterion met) [1]: initially identified in the JHCCL screen
"CC#C[C@]1(O)CC[C@H]2[C@@H]3CCC4=CC(=O)CCC4=C3[C@@H](c3ccc(N(C)C)cc3)C[C@@]21C [mifepristone, Mifepristone]",identified as hits,–,–
CC(C)C[C@@H](C=O)NC(=O)[C@H](CC(C)C)NC(=O)[C@H](CC(C)C)NC(=O)OCc1ccccc1 [MG132] (Cbz-Leu-Leu-Leu-aldehyde),–,–,fluorescent probe signal compared to untreated cells [1]: reduces the signal compared to untreated cells; cytotoxicity (MelJuSo wild type cells): highly cytotoxic
CCCCCCCC/C=C\CCCCCCCC(=O)O [Oleic acid],–,Increases all 3 proteasome,–
Oc1ccc(-c2nc(-c3ccc(F)cc3)c(-c3ccncc3)[nH]2)cc1 [SB202190],–,–,activation effect on the β2- and β5-subunits [2]: pronounced activation effect; activation effect on the β2- and β5-subunits ([2]; listed as SB202150): most pronounced; inhibition of p38α isoform (p38α): inhibits both the p38α and p38β-isoforms
Polylysine,–,Increases mainly,–
Fc1ccc(-c2nc3n(c2-c2ccncc2)CCS3)cc1 [SKF86002],–,–,inhibition of p38α isoform (p38α): inhibits only p38α
CCCCCCCCCCCCOS(=O)(=O)[O-].[Na+] [SDS],–,Increases all 3 proteasome,–
"C#C[C@]1(O)CC[C@H]2C3CCC4=Cc5nc6nc7ccccc7n6cc5C[C@]4(C)C3CC[C@@]21C (some centres unmarked) [Win 62,577]",–,–,"concentration dependence of proteasome activation (FL-1 signal) [1]: dose-dependent increase of the fluorescent signal; screening hit (FL-1 log 2 ratio >1.00 and no exclusion criterion met) [1]: identified as hits; time dependence of proteasome activation (FL-1 log 2 ratio) [1]: mild decrease after 48 hours of incubation; probe signal after one hour of incubation, no washout [2]: strong activation; also recorded: clear increase in signal; probe signal after one hour of washout [2]: still more than the untreated control but less when compared to the no washout; probe signal after two hours of washout [2]: disappeared; timeframe of onset and termination of increasing proteasome activity [2]: 1 to 2 h"
CC/C=C\C/C=C\C/C=C\CCCCCCCC(=O)O [alpha linolenic acid],–,Increases all 3 proteasome,–
"CN(C)C(=O)C(CCN1CCC(O)(c2ccc(Cl)cc2)CC1)(c1ccccc1)c1ccccc1 [loperamide, Loperamide]",–,–,screening hit (FL-1 log 2 ratio >1.00 and no exclusion criterion met) [1]: identified as hits
"O=c1[nH]c2ccccc2n1C1CCN(CCCC(c2ccc(F)cc2)c2ccc(F)cc2)CC1 [pimozide, Pimozide]",identified as hits,–,–
"CN1C[C@H](CNC(=O)OCc2ccccc2)C[C@@H]2c3cccc4c3c(cn4C)C[C@H]21 [metergoline, Metergoline]",identified as hits,–,–
"COc1ccc(CCN(C)CCCC(C#N)(c2ccc(OC)c(OC)c2)C(C)C)cc1OC (centres unmarked) [verapamil, Verapamil]",–,–,screening hit (FL-1 log 2 ratio >1.00 and no exclusion criterion met) [1]: identified as hits in both
COc1cccc(-c2cc(=O)c3ccccc3o2)c1N [PD98059],–,–,activation effect on the β2- and β5-subunits [2]: most pronounced; also recorded: pronounced activation effect; activation effect on the β2- and β5-subunits ([2]; listed as PD98052): seems to enhance the activity
Ceramides,–,Increases mainly,–
Methylbenzethonium,identified as hits,–,–
"Nc1ccc2cc3ccc(N)cc3nc2c1 [proflavine, Proflavine]",identified as hits,–,–
"CC(C)OC(=O)C(C)(C)Oc1ccc(C(=O)c2ccc(Cl)cc2)cc1 [fenofibrate, Fenofibrate]",identified as hits,–,–
Polyarginine,–,Increases mainly,–
Lysophosphatidylinositol,–,Increases mainly,–
"OCCN(CCO)c1nc(N2CCCCC2)c2nc(N(CCO)CCO)nc(N3CCCCC3)c2n1 [dipyrimadole, Dipyrimadole]",identified as hits in both,–,–
"CCCn1c(=O)c2[nH]c(C3CCCC3)nc2n(CCC)c1=O [DPCPX, 8-cyclopenthyl-1,3-dipropylxanthine]",identified as hits,–,"time dependence of proteasome activation (FL-1 log 2 ratio) ([1]; 0.1, 0.5, 1.0 or 5.0 μM compound for 4, 16, 24 or 48 hours): both concentration and time dependent; also recorded: displayed an increase in activation over time"
CN(C)CCC[C@@]1(c2ccc(F)cc2)OCc2cc(C#N)ccc21 [escitalopram],initially identified in the JHCCL screen,–,–
CN1[C@@H]2CC[C@H]1C[C@@H](OC(c1ccccc1)c1ccccc1)C2 [benztropin],initially identified in the JHCCL screen,–,–
Cardiolipin,–,Increases mainly,–
CCCCC/C=C\C/C=C\CCCCCCCC(=O)O [Linoleic acid],–,Increases all 3 proteasome,–
